According to patent publication US9204646B2, “Pyrazole tetrahydronaphthyl carboxamides” (BAYER CROPSCIENCE AG, priority 2012, dated 2015):
Read-outs that look alike come from different tables or passages of the source. One block for each compound: values may come before it.

How the values were obtained:
[1] = Measurement of log P values by HPLC on reversed phase columns (EEC directive 79/831 Annex V.A8); format: physicochemical; conditions: for logP: Table 1 active ingredients
Puccinia recondita = assay: In vivo preventive test on Puccinia recondita (brown rust on wheat); conditions: preventive spray on wheat plants, grading 12 days after contamination vs control plants
Experimental: Wheat plants (“Scipion” variety), sown in starter cups on a 50/50 peat soil-pozzolana substrate and grown at 22° C., are treated at the 1-leaf stage (10 cm height) by spraying with the active ingredient prepared as described above. Plants, used as controls, are treated with the mixture of acetone/tween/DMSO/water not containing the active material. After 24 hours, the plants are contaminated by spraying the leaves with an aqueous suspension of Puccinia recondita spores (100 000 spores per ml). […] The contaminated wheat plants are incubated for 24 hours at 20° C. and at 100% relative humidity, and then for 10 days at 20° C. and at 70-80% relative humidity. Grading (% of efficacy) is carried out 12 days after the contamination, in comparison with the control plants.

Uromyces appendiculatus = assay: In vivo preventive test on Uromyces appendiculatus (bean rust); conditions: preventive spray on bean plants, grading 11 days after contamination vs control plants
Experimental: Bean plants (“Saxa” variety), sown in starter cups on a 50/50 peat soil-pozzolana substrate and grown at 24° C., are treated at the 2-leaf stage (9 cm height) by spraying with the active ingredient prepared as described above. Plants, used as controls, are treated with the mixture of acetone/tween/DMSO/water not containing the active material. After 24 hours, the plants are contaminated by spraying the leaves with an aqueous suspension of Uromyces appendiculatus spores (150 000 spores per ml). […] The contaminated bean plants are incubated for 24 hours at 20° C. and at 100% relative humidity, and then for 10 days at 20° C. and at 70-80% relative humidity. Grading (% of efficacy) is carried out 11 days after the contamination, in comparison with the control plants.

Pyrenophora teres = assay: In vivo preventive test on Pyrenophora teres (net blotch on barley); conditions: preventive spray on barley plants, grading 14 days after contamination vs control plants
Experimental: Barley plants (“Plaisant” variety), sown in starter cups on a 50/50 peat soil-pozzolana substrate and grown at 22° C., are treated at the 1-leaf stage (10 cm height) by spraying with the active ingredient prepared as described above. Plants, used as controls, are treated with the mixture of acetone/tween/DMSO/water not containing the active material. After 24 hours, the plants are contaminated by spraying the leaves with an aqueous suspension of Pyrenophora teres spores (12 000 spores per ml). The spores are collected from a 12-day-old culture. The contaminated barley plants are incubated for 48 hours at 20° C. and at 100% relative humidity, and then for 12 days at 20° C. at 70-80% relative humidity. Grading (% of efficacy) is carried out 14 days after the contamination, in comparison with the control plants.

Septoria tritici = assay: In vivo preventive test on Septoria tritici (leaf spot on wheat); conditions: dose of 500 ppm; preventive spray on wheat plants; grading 24 days after contamination vs control plants
Experimental: Wheat plants (“Scipion” variety), sown in starter cups on a 50/50 peat soil-pozzolana substrate and grown at 22° C., are treated at the 1-leaf stage (10 cm height) by spraying with the active ingredient prepared as described above. Plants, used as controls, are treated with the mixture of acetone/tween/DMSO/water not containing the active material. After 24 hours, the plants are contaminated by spraying the leaves with an aqueous suspension of cryopreserved Septoria tritici spores (500 000 spores per ml). The contaminated wheat plants are incubated for 72 hours at 18° C. and at 100% relative humidity, and then for 21 days at 90% relative humidity. Grading (% of efficacy) is carried out 24 days after the contamination, in comparison with the control plants.

Sphaerotheca fuliginea = assay: In vivo preventive test on Sphaerotheca fuliginea (powdery mildew on cucurbits); conditions: preventive spray on gherkin plants, grading 12 days after contamination vs control plants
Experimental: Gherkin plants (“Vert petit de Paris” variety), sown in starter cups on a 50/50 peat soil-pozzolana substrate and grown at 24° C., are treated at the Z11 cotyledon stage by spraying with the active ingredient prepared as described above. Plants, used as controls, are treated with the mixture of acetone/tween/DMSO/water not containing the active material. After 24 hours, the plants are contaminated by spraying the cotyledons with an aqueous suspension of Sphaerotheca fuliginea spores (100 000 spores per ml). The spores are collected from infected plants. The contaminated gherkin plants are incubated at about 20° C. and at 70-80% relative humidity. Grading (% of efficacy) is carried out 12 days after the contamination, in comparison with the control plants.

Alternaria brassicae = assay: In vivo preventive test on Alternaria brassicae (leaf spot on radish); conditions: preventive spray on radish plants, grading 6 days after contamination vs control plants
Experimental: Radish plants (“Pernod Clair” variety), sown in starter cups on a 50/50 peat soil-pozzolana substrate and grown at 17° C., are treated at the cotyledon stage by spraying with the active ingredient prepared as described above. Plants, used as controls, are treated with the mixture of acetone/tween/DMSO/water not containing the active material. After 24 hours, the plants are contaminated by spraying the cotyledons with an aqueous suspension of Alternaria brassicae spores (50 000 spores per ml). The spores are collected from a 15-day-old culture. The contaminated radish plants are incubated at 20° C. and at 100% relative humidity. Grading (% of efficacy) is carried out 6 days after the contamination, in comparison with the control plants.

Botrytis cinerea = assay: In vivo preventive test on Botrytis cinerea (grey mould); conditions: preventive spray on gherkin plants, grading 4 to 5 days after contamination vs control plants
Experimental: Gherkin plants (“Vert petit de Paris” variety), sown in starter cups on a 50/50 peat soil-pozzolana substrate and grown at 24° C., are treated at the Z11 cotyledon stage by spraying with the active ingredient prepared as described above. Plants, used as controls, are treated with the mixture of acetone/tween/DMSO/water not containing the active material. After 24 hours, the plants are contaminated by spraying the cotyledons with an aqueous suspension of cryopreserved Botrytis cinerea spores (50 000 spores per ml). The spores are suspended in a nutrient solution composed of 10 g/L of PDB, 50 g/L of D-Fructose, 2 g/L of NH4NO3 and 1 g/L of KH2PO4. The contaminated gherkin plants are incubated at 17° C. and at 90% relative humidity. Grading (% of efficacy) is carried out 4 to 5 days after the contamination, in comparison with the control plants.

[2] = method [a]: LC-MS at pH 2.7, 0.1% formic acid in water / acetonitrile, linear gradient 10% to 95% acetonitrile
[3] = reversed phase HPLC column, method [a]: LC-MS at pH 2.7, 0.1% formic acid in water / acetonitrile, linear gradient 10% to 95% acetonitrile, Table 2 intermediates of formula (III-a), read-out: logP

SMILES: CC1c2cccc(NC(=O)c3c(C(F)F)nn(C)c3Cl)c2CCC1(C)C (racemic) [Example 11]
logP [1, 2]: 4.39[a]
Eff. % (Puccinia recondita; dose of 500 ppm): 98%
Eff. % (Uromyces appendiculatus; dose of 500 ppm): 100%

SMILES: Cn1nc(C(F)F)c(C(=O)Nc2cccc3c2CC(C)(C)CC3)c1F [Example 13]
logP [1, 2]: 3.72[a]
Eff. % (Pyrenophora teres; dose of 500 ppm): 75%
Eff. % (Puccinia recondita; dose of 500 ppm): 97%
Eff. % (Septoria tritici): 95%
Eff. % (Sphaerotheca fuliginea; dose of 500 ppm): 98%
Eff. % (Uromyces appendiculatus; dose of 500 ppm): 100%

SMILES: CON=C1CCCc2c(NC(=O)c3c(C(F)F)nn(C)c3F)cccc21 [Example 19]
logP [1, 2]: 2.86[a]
Eff. % (Alternaria brassicae; dose of 500 ppm): 96%
Eff. % (Botrytis cinerea; dose of 500 ppm): 96%

SMILES: CCON=C1CCCc2c(NC(=O)c3c(C(F)F)nn(C)c3Cl)cccc21 [Example 21]
logP [1, 2]: 3.55[a]
Eff. % (Pyrenophora teres; dose of 500 ppm): 75%
Eff. % (Puccinia recondita; dose of 500 ppm): 94%

SMILES: Cn1nc(C(F)F)c(C(=S)Nc2ccc(F)c3c2CCCC3(C)C)c1Cl [Example 17]
logP [1, 2]: 4.24[a]
Eff. % (Puccinia recondita; dose of 500 ppm): 100%
Eff. % (Uromyces appendiculatus; dose of 500 ppm): 100%

SMILES: Cn1nc(C(F)F)c(C(=O)Nc2ccc(F)c3c2CCCC3(C)C)c1Cl [Example 16]
logP [1, 2]: 4.01[a]
Eff. % (Puccinia recondita; dose of 500 ppm): 97%
Eff. % (Uromyces appendiculatus; dose of 500 ppm): 100%

SMILES: CCON=C1CCCc2c(NC(=O)c3c(C(F)F)nn(C)c3F)cccc21 [Example 18]
logP [1, 2]: 3.31[a]
Eff. % (Alternaria brassicae; dose of 500 ppm): 83%
Eff. % (Pyrenophora teres; dose of 500 ppm): 92%
Eff. % (Uromyces appendiculatus; dose of 500 ppm): 81%

SMILES: Cn1nc(C(F)F)c(C(=O)Nc2cccc3c2CC(C)(C)CC3)c1Cl [Example 14]
logP [1, 2]: 3.9[a]
Eff. % (Alternaria brassicae; dose of 500 ppm): 71%
Eff. % (Pyrenophora teres; dose of 500 ppm): 97%
Eff. % (Puccinia recondita; dose of 500 ppm): 100%
Eff. % (Septoria tritici): 90%
Eff. % (Sphaerotheca fuliginea; dose of 500 ppm): 98%
Eff. % (Uromyces appendiculatus; dose of 500 ppm): 99%

SMILES: CC1CCc2c(NC(=O)c3c(C(F)F)nn(C)c3Cl)cccc2C1(C)C (racemic) [Example 15]
logP [1, 2]: 4.29[a]
Eff. % (Puccinia recondita; dose of 500 ppm): 98%
Eff. % (Septoria tritici): 75%
Eff. % (Sphaerotheca fuliginea; dose of 500 ppm): 70%
Eff. % (Uromyces appendiculatus; dose of 500 ppm): 95%

SMILES: CC1CCC(C)(C)c2cccc(NC(=O)c3c(C(F)F)nn(C)c3F)c21 (racemic) [Example 3]
logP [1, 2]: 3.92[a]
Eff. % (Alternaria brassicae; dose of 500 ppm): 93%
Eff. % (Botrytis cinerea; dose of 500 ppm): 100%
Eff. % (Puccinia recondita; dose of 500 ppm): 94%
Eff. % (Uromyces appendiculatus; dose of 500 ppm): 100%

SMILES: CCON=C1CCCc2c(NC(=O)c3c(C(F)F)nn(C)c3Br)cccc21 [Example 20]
logP [1, 2]: 3.57[a]

SMILES: C=C1c2cccc(NC(=O)c3c(C(F)F)nn(C)c3Cl)c2CCC1(C)C [Example 5]
logP [1, 2]: 4.14[a]
Eff. % (Botrytis cinerea; dose of 500 ppm): 93%
Eff. % (Puccinia recondita; dose of 500 ppm): 94%
Eff. % (Uromyces appendiculatus; dose of 500 ppm): 100%

SMILES: CC1CCc2c(NC(=O)c3c(C(F)F)nn(C)c3F)cccc2C1C (centres unmarked) [Example 8]
logP [1, 2]: 3.83[a]
Eff. % (Alternaria brassicae; dose of 500 ppm): 97%
Eff. % (Pyrenophora teres; dose of 500 ppm): 71%
Eff. % (Puccinia recondita; dose of 500 ppm): 100%
Eff. % (Sphaerotheca fuliginea; dose of 500 ppm): 85%
Eff. % (Uromyces appendiculatus; dose of 500 ppm): 99%

SMILES: CC1CCc2c(NC(=O)c3c(C(F)F)nn(C)c3Cl)cccc2C1C (centres unmarked) [Example 7]
logP [1, 2]: 4.09[a]
Eff. % (Alternaria brassicae; dose of 500 ppm): 97%
Eff. % (Puccinia recondita; dose of 500 ppm): 100%
Eff. % (Uromyces appendiculatus; dose of 500 ppm): 100%

SMILES: CC1CCC(C)(C)c2cccc(NC(=O)c3c(C(F)F)nn(C)c3Cl)c21 (racemic) [Example 4]
logP [1, 2]: 4.14[a]
Eff. % (Alternaria brassicae; dose of 500 ppm): 92%
Eff. % (Puccinia recondita; dose of 500 ppm): 94%
Eff. % (Uromyces appendiculatus; dose of 500 ppm): 99%

Second part, led by results:

chromatographic logP ([1]; pH 2.7): 4.11
SMILES: Cn1nc(C(F)F)c(C(=S)Nc2cccc3c2CCC(C)(C)C3)c1Cl [Example 33, 5-chloro-3-(difluoromethyl)-N-(6,6-dimethyl-5,6,7,8-tetrahydronaphthalen-1-yl)-1-methyl-1H-pyrazole-4-carbothioamide]
Eff. % (Alternaria brassicae; dose of 100 ppm): 75%
Eff. % (Puccinia recondita; dose of 100 ppm): 94%
Eff. % (Uromyces appendiculatus; dose of 100 ppm): 99%

logP [1, 2]: 4.04[a]
SMILES: Cn1nc(C(F)F)c(C(=O)Nc2cccc3c2CCC(C)(C)C3)c1Br [Example 23]
Eff. % (Puccinia recondita; dose of 500 ppm): 79%
Eff. % (Uromyces appendiculatus; dose of 500 ppm): 96%

logP [1, 2]: 3.99[a]
SMILES: Cn1nc(C(F)F)c(C(=S)Nc2cccc3c2CCC(C)(C)C3)c1F [Example 32]
Eff. % (Alternaria brassicae; dose of 100 ppm): 75%
Eff. % (Botrytis cinerea; dose of 100 ppm): 73%
Eff. % (Pyrenophora teres; dose of 100 ppm): 83%
Eff. % (Puccinia recondita; dose of 100 ppm): 94%
Eff. % (Sphaerotheca fuliginea; dose of 100 ppm): 98%
Eff. % (Uromyces appendiculatus; dose of 100 ppm): 97%

logP [1, 2]: 4.11[a]
SMILES: Cn1nc(C(F)F)c(C(=S)Nc2cccc3c2CCC(C)(C)C3)c1Br [Example 31]

logP [1, 2]: 3.13[a]
SMILES: CON=C1CCCc2c(NC(=O)c3c(C(F)F)nn(C)c3Br)cccc21 [Example 26]

chromatographic logP [1, 3]: 1.69
SMILES: CC1(C)CCCc2c(N)cccc21 [III-a-1, 5,5-dimethyl-5,6,7,8-tetrahydronaphthalen-1-amine]

logP [1, 2]: 3.69[a]
SMILES: Cn1nc(C(F)F)c(C(=O)Nc2cccc3c2C(C)(C)CCC3)c1Cl [Example 27]

logP [1, 2]: 3.76[a]
SMILES: Cn1nc(C(F)F)c(C(=O)Nc2ccc(F)c3c2CCCC3(C)C)c1F [Example 24]
Eff. % (Alternaria brassicae; dose of 500 ppm): 75%
Eff. % (Puccinia recondita; dose of 500 ppm): 97%
Eff. % (Uromyces appendiculatus; dose of 500 ppm): 100%

logP [1, 2]: 3.44[a]
SMILES: Cn1nc(C(F)F)c(C(=O)Nc2cccc3c2C(C)(C)CCC3)c1F [Example 29]

logP [1, 2]: 3.09[a]
SMILES: CON=C1CCCc2c(NC(=O)c3c(C(F)F)nn(C)c3Cl)cccc21 [Example 28]

chromatographic logP [1, 3]: 1.86
SMILES: CC1(C)CCc2c(N)cccc2C1 [III-a-12, 6,6-dimethyl-5,6,7,8-tetrahydronaphthalen-1-amine]
